Measurements taken from US20030181401A1, “Insulin secretion promoter” (KYOWA HAKKO KOGYO CO., LTD., priority 2002, published 2003).
Values joined by “and” are separate entries in the source; they are usually repeats but may differ in a detail not shown here. Identical values can stand only once.

How the values were obtained:
ICR mice = assay: Test Example 8: serum insulin in glucose tolerance test after single oral 2′-FL dose; type: in vivo
Method: Groups of male 8-week-old ICR mice (Japan SLC, Inc.) each consisting of 6 mice were fed CE-2 (Clea Japan, Inc.) for one week, so as to accustom the animals to the environment.
Then, the mice accustomed were fasted for 18 hours. An aqueous 2% solution of 2′-FL was orally administered to the mice to 100 mg (2′-FL)/kg body weight, while 0.9% saline was administered orally to the control group. Two hours after the 2′-FL dosing, an aqueous 40% glucose solution was orally administered to 2 g (glucose)/kg body weight to the mice, for glucose tolerance test. […] Blood glucose was assayed with a simple-type blood glucose assay apparatus Medisafe Reader GR-101 (Terumo, Co., Ltd.), while the serum was collected.
Insulin in the serum recovered was assayed by enzyme immunoassay using Morinaga ultra-sensitive rat insulin assay kit (Morinaga Biochemical Research Institute, Co., Ltd.) described below. 15 μl of the serum was divided in the wells of an antibody-immobilized plate, where 85 μl of the diluent attached to the kit was divided therein, for reaction at 4° C. for 2 hours. […] The absorbance of each well at 450 nm (principal wave length) and 655 nm (sub wave length) was measured with BioRad Model 3550 microplate reader (BioRad Laboratories, Inc.). […] Based on the prepared standard curve, the serum insulin concentration corresponding to the absorbance during the reaction with the serum was determined.

[1] = tested on: STZ-induced diabetic rats (Wistar); assay: Test Example 9: serum insulin in glucose tolerance test, Type I diabetes mellitus model; type: in vivo
Method: Male 7-week-old Wistar rats (Japan SLC, Inc.) were fed CE-2 (Clea Japan, Inc.) for one week, so as to accustom the rats to the environment.
After 18-hour starvation of the accustomed rats, […] of 50 mM citrate buffer, pH 4.5containing 15 mg of streptozotocin (WAKO Pure Chemical Industries, Inc.; abbreviated as “STZ” hereinafter) was prepared and administered to 25 mg (STZ)/kg body weight from their tail vein. Five days after the STZ administration, the rats were fasted for 18 hours. Blood was taken from puncture in the tail vein to assay blood glucose with a simple-type blood glucose assay apparatus Medisafe Reader GR-101 (Terumo, Co., Ltd.), to select 5 rats (Nos. 1, 3, 4, 5, 8) at mild state of diabetes mellitus with a blood glucose level of 200 mg/dl or less.
An aqueous 2% solution of 2′-fucosyllactose was prepared and administered to the rat No. 1 from the tail vein to 50 mg/kg body weight on a 2′-FL dose basis. 0.9% physiological saline was administered to rats Nos. 3, 4, 5 and 8. […] Zero minute and 30, 60, 120, and 240 minutes after glucose loading, blood was taken from a tail vein, to assay blood glucose with Medisafe Reader GR-101 and collect the serum.
12 days after the STZ dosing, the rats were fasted for 18 hours. […] Zero minute and 30, 60, 120, and 240 minutes after glucose loading, blood was taken from a tail vein, to assay blood glucose with Medisafe Reader GR-101 and collect the serum.
Insulin in the serum was assayed by enzyme immunoassay using Morinaga ultra-sensitive rat insulin assay kit (Morinaga Biochemical Research Institute, Co., Ltd.) in the same manner as in Test Example 8. Additionally, a standard curve was prepared by diluting […] of the standard insulin (rat) attached to the kit with 100 μl of saline to use the resulting 25.6 ng/ml insulin solution as the standard solution, diluting the standard solution appropriately with the diluent attached to the kit for the same reaction as for the serum, and plotting the relation between the concentration and the absorbance at the principal wave length of 450 nm and at the sub wave length of 655 nm. […]

Substance: 2′-fucosyllactose [2′-FL]
- Serum insulin concentration after glucose loading (ICR mice; ICR mice fasted 18 hours, 100 mg/kg single oral dose two hours before glucose 2 g/kg oral, 60 minutes, mean ± SD): 82.6 ± 91.7 pg/mL
- serum insulin concentration after glucose loading compared with the control group (in words) (ICR mice; ICR mice, single oral dosing 120 minutes before glucose dosing): increased
- serum insulin concentration via glucose loading (in words) ([1]; STZ-induced diabetic rats, glucose loading 2 hours after intravenous dosing): increased
- Serum insulin concentration, 0 minute ([1]; individual STZ rats Nos. 1, 3, 4, 5, 8, 50 mg/kg intravenous two hours before glucose 1 g/kg oral, 0 minute after glucose loading, 50 mg/kg): 125.8 pg/mL and 697.0 pg/mL and 197.4 pg/mL and 180.4 pg/mL and 312.5 pg/mL
- Serum insulin concentration, 30 minutes ([1]; individual STZ rats Nos. 1, 3, 4, 5, 8, 50 mg/kg intravenous two hours before glucose 1 g/kg oral, 30 minutes after glucose loading, 50 mg/kg): 331.1 pg/mL and 586.6 pg/mL and 915.1 pg/mL and 475.5 pg/mL and 148.4 pg/mL
